Several values for one entry are separate records, joined by “and”; a condition that tells them apart may be missing. Equal values may be shown once. Marks after values point to notes of the source that are not given here.
Legend:
[1] = tested on: NCI-H460-PTX (MDR) xenograft; assay: Xenograft tumor growth inhibition (Example 7); assay type: in vivo, mice; conditions: Lung, oral 15 mg/kg b.i.d. 2 consecutive days per week or 3 mg/kg b.i.d. every day, 3 weeks
Description: (§1) The in-vivo effect of AMG 900 on tumor growth was further evaluated in a panel of human xenografts from five different tumor types (breast, colon, lung, pancreatic, and uterine), including three MDR xenograft models. Mice bearing established tumors were orally administered AMG 900 at 15 mg/kg b.i.d. for 2 consecutive days per week for 3 weeks or at 3 mg/kg b.i.d. every day for 3 weeks. The maximum percentage of tumor growth inhibition (TGI) is reported, in Table 7 below, for each xenograft model. The percentage of TGI was calculated as the difference between the change in vehicle-treated control and AMG 900-treated tumor volumes during the study period.

[2] = tested on: MES-SA xenograft; assay: Xenograft tumor growth inhibition (Example 7); assay type: in vivo, mice; conditions: Uterine, oral 15 mg/kg b.i.d. 2 consecutive days per week or 3 mg/kg b.i.d. every day, 3 weeks
Description: as §1

[3] = tested on: MES-SA-Dx5 (MDR) xenograft; assay: Xenograft tumor growth inhibition (Example 7); assay type: in vivo, mice; conditions: Uterine, oral 15 mg/kg b.i.d. 2 consecutive days per week or 3 mg/kg b.i.d. every day, 3 weeks
Description: as §1

[4] = tested on: MiaPaCa2 xenograft; assay: Xenograft tumor growth inhibition (Example 7); assay type: in vivo, mice; conditions: MiaPaCa2, Pancreas; oral 15 mg/kg b.i.d. 2 consecutive days per week or 3 mg/kg b.i.d. every day, 3 weeks
Description: as §1

[5] = tested on: NCI-H460 xenograft; assay: Xenograft tumor growth inhibition (Example 7); assay type: in vivo, mice; conditions: NCI-H460, Lung; oral 15 mg/kg b.i.d. 2 consecutive days per week or 3 mg/kg b.i.d. every day, 3 weeks
Description: as §1

[6] = tested on: MDA-MB-231 xenograft; assay: Xenograft tumor growth inhibition (Example 7); assay type: in vivo, mice; conditions: MDA-MB-231, Breast; oral 15 mg/kg b.i.d. 2 consecutive days per week or 3 mg/kg b.i.d. every day, 3 weeks
Description: as §1

[7] = tested on: HCT-15 (MDR) xenograft; assay: Xenograft tumor growth inhibition (Example 7); assay type: in vivo, mice; conditions: Colon, oral 15 mg/kg b.i.d. 2 consecutive days per week or 3 mg/kg b.i.d. every day, 3 weeks
Description: as §1

[8] = tested on: COLO 205 xenograft; assay: Xenograft tumor growth inhibition (Example 7); assay type: in vivo, mice; conditions: COLO 205, Colon; oral 15 mg/kg b.i.d. 2 consecutive days per week or 3 mg/kg b.i.d. every day, 3 weeks
Description: as §1

[9] = tested on: HCT116 parental; assay: Colony formation assay (FIG. 6-B); assay type: cell-based, human; conditions: 48 hours treatment, re-plated drug-free
Description: Cells were grown until the DMSO control wells were confluent. Cells were stained with crystal violet dye (Sigma), washed with distilled water, and imaged using a digital scanner (Hewlett-Packard). Colony formation assay was performed with HCT116 cell lines (parental and AZD1152-resistant). Cells were treated with DMSO, AMG 900, AZD1152, or paclitaxel at the indicated concentrations for 48 hours and re-plated in complete media lacking the inhibitor. After the DMSO-treated cells reached confluence, the cells were stained with crystal violet and imaged (duplicate wells).

[10] = tested on: MDR tumor cell lines expressing either P-gp or BCRP; assay: p-histone H3 / polyploidy in MDR tumor cell lines (summary); assay type: cell-based; conditions: Homo sapiens; all cell lines tested irrespective of P-gp or BCRP status; read-out: IC50 or EC50 values (p-histone H3 inhibition or polyploidy)
Description: All high-content cell assays were performed on an ArrayScan VTi HCS Reader (Cellomics). Tumor cell lines were treated with AMG 900, AZD1152, MK-0457, or PHA-739358 (concentration range varied based on potency). The cells were prepared for intracellular staining with an anti-p-histone H3 Ser^10 antibody as previously described (1). Detection was performed with an anti-rabbit IgG-alexa-568 antibody and DAPI. The cellular levels of p-histone H3 were analyzed using Target Activation V2 algorithm (Cellomics) to determine the percentage of positive cells. For the imaging assays, the concentration-response curves and corresponding IC50 and EC50 values were calculated using the percentage of cells affected versus the DMSO control.
Tumor cells were treated with AMG 900, AZD1152, MK-0457, or PHA-739358 (range concentration varied based on potency) for 24 hours and processed for cell-cycle analysis (DNA staining only) as previously described (1). Cells were analyzed on a LSRII flow cytometer using BD FACS Diva software. The concentration-response curves and corresponding EC50 values were calculated using the percentage of cells with ≧4N DNA content versus the DMSO control.

IC50 [10]: 2 to 3 nM
SMILES: Cc1csc(-c2nnc(Nc3ccc(Oc4ncccc4-c4ccnc(N)n4)cc3)c3ccccc23)c1 [AMG 900, N-(4-((3-(2-amino-4-pyrimidinyl)-2-pyridinyl)oxy)phenyl)-4-(4-methyl-2-thienyl)-1-phthalazinamine]
Maximum TGI (%) [1]: 66% and 65** % | Maximum TGI (%) [2]: 87** % | Maximum TGI (%) [3]: 84% | Maximum TGI (%) [4]: 60** % | Maximum TGI (%) [5]: 85** % | Maximum TGI (%) [6]: 82** % | Maximum TGI (%) [7]: 50* % | Maximum TGI (%) [8]: 73* % | concentrations inhibiting colony formation [9]: ≥ 5 nmol/L

Source: US20120028917A1, “Use Of N-(4-((3-(2-Amino-4-Pyrimidinyl)-2-Pyridinyl)Oxy)Phenyl)-4-(4-Methyl-2-Thienyl)-1-Phthalazinamine In The Treatment Of Antimitotic Agent Resistant Cancer” (Amgen Inc., priority 2009, published 2012)
